Columns and labels:
[1] = target: ROCK1 (Homo sapiens, UniProt Q13464); assay: ROCK1 inhibition assay (ROCK1 binding activity, as determined by the assay described for ROCK2); assay type: biochemical; conditions: read-out: ROCK 1 (IC50 category)
Outline: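 Run under the conditions used for ROCK2: 1 h compound–kinase preincubation, then 1 h reaction with 100 μM long S6 peptide and 20 μM ATP in 50 mM HEPES pH 7.5, 1% DMSO. ADP quantified by ADP-Glo luminescence; IC50 from four-parameter logistic fit, reported in potency categories.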

[2] = target: T1, ROCK2 (Homo sapiens, UniProt O75116); assay: ROCK2 inhibition assay (ADP-Glo kinase assay, called ROCK2 binding activity); assay type: biochemical; conditions: 20 μM ATP, 1 hour pre-incubation, read-out: ROCK 2 (IC50 category)
T1 construct: N-terminal 6His-tagged ROCK2 catalytic domain 11-552; 6His (N); purchased Dundee University, UK; host or cells: baculovirus expression system
T1 sequence (O75116 11-552): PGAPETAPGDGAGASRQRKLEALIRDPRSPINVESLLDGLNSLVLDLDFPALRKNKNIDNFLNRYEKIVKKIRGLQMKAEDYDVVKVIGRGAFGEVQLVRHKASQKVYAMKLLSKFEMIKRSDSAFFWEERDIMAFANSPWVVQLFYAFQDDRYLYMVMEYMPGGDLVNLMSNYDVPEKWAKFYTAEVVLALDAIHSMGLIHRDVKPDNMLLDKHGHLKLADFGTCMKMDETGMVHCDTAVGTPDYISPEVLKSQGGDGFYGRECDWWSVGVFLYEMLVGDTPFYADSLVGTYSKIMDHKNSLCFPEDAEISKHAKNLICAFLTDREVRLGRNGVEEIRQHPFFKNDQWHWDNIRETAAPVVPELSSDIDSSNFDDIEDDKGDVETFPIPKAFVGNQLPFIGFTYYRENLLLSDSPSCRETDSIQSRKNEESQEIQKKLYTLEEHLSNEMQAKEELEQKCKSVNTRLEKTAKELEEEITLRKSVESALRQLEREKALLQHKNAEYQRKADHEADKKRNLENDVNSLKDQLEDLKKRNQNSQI
Outline: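 N-terminal 6His ROCK2 catalytic domain (11-552, baculovirus-expressed; 1.25 nM) was pre-incubated with compound for 1 h (1% DMSO, HEPES pH 7.5). Reaction then ran 1 h with 100 μM long S6 peptide and 20 μM ATP. ADP was quantified by ADP-Glo luminescence, and IC50 was derived from a four-parameter logistic fit and reported in potency bins.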

ROCK1, sequence (Q13464 whole entry): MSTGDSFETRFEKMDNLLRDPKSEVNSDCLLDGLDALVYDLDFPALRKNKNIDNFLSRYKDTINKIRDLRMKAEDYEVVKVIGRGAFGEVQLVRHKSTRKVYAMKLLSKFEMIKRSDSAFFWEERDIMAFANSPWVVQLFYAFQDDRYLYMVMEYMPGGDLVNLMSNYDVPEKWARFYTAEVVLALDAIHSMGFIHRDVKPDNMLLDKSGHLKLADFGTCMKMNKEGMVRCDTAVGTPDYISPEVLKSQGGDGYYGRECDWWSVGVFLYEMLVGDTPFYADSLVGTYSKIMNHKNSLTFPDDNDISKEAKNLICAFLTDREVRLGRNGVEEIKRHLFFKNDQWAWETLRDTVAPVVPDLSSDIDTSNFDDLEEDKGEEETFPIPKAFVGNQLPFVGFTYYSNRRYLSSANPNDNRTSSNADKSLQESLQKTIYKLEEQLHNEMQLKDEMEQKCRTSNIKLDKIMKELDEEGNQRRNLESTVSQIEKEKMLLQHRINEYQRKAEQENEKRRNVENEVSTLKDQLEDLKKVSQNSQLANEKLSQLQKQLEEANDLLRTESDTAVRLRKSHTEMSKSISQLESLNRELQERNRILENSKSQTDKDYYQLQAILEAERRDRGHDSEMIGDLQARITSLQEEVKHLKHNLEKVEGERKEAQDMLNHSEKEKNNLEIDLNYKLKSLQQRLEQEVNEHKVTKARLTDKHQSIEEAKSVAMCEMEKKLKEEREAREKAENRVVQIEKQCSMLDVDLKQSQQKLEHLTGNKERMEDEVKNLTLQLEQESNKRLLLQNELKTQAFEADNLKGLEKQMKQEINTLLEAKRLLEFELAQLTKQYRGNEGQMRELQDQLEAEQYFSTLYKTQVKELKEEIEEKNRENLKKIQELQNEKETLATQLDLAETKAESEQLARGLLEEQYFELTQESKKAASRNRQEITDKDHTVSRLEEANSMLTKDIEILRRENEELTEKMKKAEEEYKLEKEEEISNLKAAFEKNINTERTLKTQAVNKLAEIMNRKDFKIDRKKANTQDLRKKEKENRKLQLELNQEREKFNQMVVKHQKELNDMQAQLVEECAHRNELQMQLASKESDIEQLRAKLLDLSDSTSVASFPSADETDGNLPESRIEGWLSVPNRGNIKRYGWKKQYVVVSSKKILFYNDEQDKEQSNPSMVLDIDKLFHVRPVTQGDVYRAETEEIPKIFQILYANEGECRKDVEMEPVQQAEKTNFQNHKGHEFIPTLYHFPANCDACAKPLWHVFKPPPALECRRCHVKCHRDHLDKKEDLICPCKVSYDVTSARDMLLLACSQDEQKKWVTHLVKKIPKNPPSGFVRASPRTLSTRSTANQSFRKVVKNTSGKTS

Row | IC50 [1] | IC50 [2] | SMILES
1 | > 10 µM | 3 to 10 µM | CCn1nc(-c2ccc(C3CCC(C)NC3)c(C)c2)nc1Nc1cc2c(cc1C)C(=O)NC2C (centres unmarked) [Example 145, 5-[[2-ethyl-5-[3-methyl-4-(6-methyl-3-piperidyl)phenyl]-1,2,4-triazol-3-yl]amino]-3,6-dimethyl-isoindolin-1-one]
2 | > 10 µM | 0.3 to 3 µM | CCn1nc(-c2ccc(C3CCN(CC(F)(F)F)CC3)cc2)nc1Nc1cc2c(cc1F)C(=O)NC2C (centres unmarked) [Example 146]
3 | > 10 µM | 0.3 to 3 µM | CCn1nc(-c2ccc(C3CCCN(CC(F)(F)F)C3)c(C)c2)nc1Nc1cc2c(cc1C)C(=O)NC2C (centres unmarked) [Example 147]
4 | > 10 µM | > 10 µM | CCn1nc(-c2ccc(C3CCC(C)NC3)cc2)nc1Nc1cc2c(cc1C)C(=O)NC2C (centres unmarked) [Example 148]
5 | > 10 µM | < 0.3 µM | CCn1nc(-c2ccc(-c3ccc(C)nc3)cc2C)nc1Nc1cc2c(cc1F)C(=O)NC2C (centres unmarked) [Example 149]
6 | 3 to 10 µM | < 0.3 µM | CCn1nc(-c2ccc(-c3ccc(C)nc3)cc2C)nc1Nc1cc2c(cc1C)C(=O)NC2C (centres unmarked) [Example 150]
7 | > 10 µM | > 10 µM | CCn1nc(-c2ccc(C3CCCN(C)C3)cc2)nc1Nc1cc2c(cc1C)C(=O)NC2C (centres unmarked) [Example 151]
8 | 3 to 10 µM | < 0.3 µM | CCn1nc(-c2ccc(-c3cnn(CC(F)(F)F)c3)cc2)nc1Nc1cc2c(cc1C)C(=O)NC2C (centres unmarked) [Example 152]
9 | 0.3 to 3 µM | < 0.3 µM | CCn1nc(-c2ccc(-c3cnn(CC(F)(F)F)c3)cc2C)nc1Nc1cc2c(cc1C)C(=O)NC2C (centres unmarked) [Example 153]
10 | 0.3 to 3 µM | < 0.3 µM | CCn1nc(-c2ccc(-c3ccc(C(C)(C)O)nc3)c(C)c2)nc1Nc1cc2c(cc1C)C(=O)NC2C (centres unmarked) [Example 154]
11 | > 10 µM | 3 to 10 µM | CCn1nc(-c2ccc(C3CCC(C)NC3)cc2C)nc1Nc1cc2c(cc1C)C(=O)NC2C (centres unmarked) [Example 155]
12 | > 10 µM | 0.3 to 3 µM | CCn1nc(-c2ccc(-c3ccc(C4CC4)nc3)c(C)c2)nc1Nc1cc2c(cc1C)C(=O)NC2C (centres unmarked) [Example 156]
13 | 0.3 to 3 µM | < 0.3 µM | CCn1nc(-c2ccc(-c3ccc(C(C)(C)O)nc3)cc2)nc1Nc1cc2c(cc1C)C(=O)NC2C (centres unmarked) [Example 157]
14 | 3 to 10 µM | < 0.3 µM | CCn1nc(-c2ccc(-n3cnc(C4CC4)c3)cc2C)nc1Nc1cc2c(cc1C)C(=O)N[C@@H]2C [Example 158]
15 | 0.3 to 3 µM | < 0.3 µM | CCn1nc(-c2ccc(-n3cnc(C4CC4)c3)cc2C)nc1Nc1cc2c(cc1C)C(=O)N[C@H]2C [Example 159]
16 | 3 to 10 µM | < 0.3 µM | CCn1nc(-c2ccc(-c3ccc(C4CC4)nc3)cc2)nc1Nc1cc2c(cc1F)C(=O)N[C@@H]2C [Example 160]
17 | 3 to 10 µM | < 0.3 µM | CCn1nc(-c2ccc(-c3ccc(C4CC4)nc3)cc2)nc1Nc1cc2c(cc1F)C(=O)N[C@H]2C [Example 161]
18 | 3 to 10 µM | < 0.3 µM | CCn1nc(-c2ccc(-c3cnn(CC(F)(F)F)c3)cc2)nc1Nc1cc2c(cc1C)C(=O)N[C@H]2C [Example 162]
19 | 0.3 to 3 µM | < 0.3 µM | CCn1nc(-c2ccc(-c3cnn(CC(F)(F)F)c3)cc2)nc1Nc1cc2c(cc1C)C(=O)N[C@@H]2C [Example 163]
